In patent US12492200B2, “NLRP3 modulators” (INNATE TUMOR IMMUNITY, INC., priority 2020, dated 2025) one finds EC50 data, which are given here for 42 molecules.

The EC50 is the concentration at which the effect is half-maximal. A higher EC50 goes with lower potency in that assay.

The target of the test is T1, NLRP3 (Homo sapiens, UniProt Q96P20).
T1 construct: host or cells: PMA-differentiated THP-1 cells
The experiment in a line: Measurement of IL-1β production (NLRP3 hIL1β EC50), PMA-differentiated THP-1 cells. To be noted: human IL-1β production; assayed using one or more of the described procedures. Format: cell-based. On the procedure: THP-1 cells were purchased from the American Type Culture Collection and sub-cultured according to instructions from the supplier. Prior to experiments, cells were cultured in RPMI 1640 containing 10% heat inactivated FBS, penicillin (100 units/ml) and streptomycin (100 μg/ml), and maintained in log phase prior to experimental setup. Prior to the experiment THIP-1 were treated with PMA (Phorbol 12-myristate 13-acetate) (10 μg/ml) for 24 hours. The day of the experiment the media was removed and attaching cells were treated with trypsin for 2 minutes, cells were then collected, washed with PBS (phosphate buffer saline), spin down, resuspended in 2% heat inactivated FBS with RPMI at a concentration of 1×10^6 cells/ml, and 100 μl was plated in a 96 well plate. Compounds were dissolved in dimethyl sulfoxide (DMSO) and added to the culture medium to achieve desired concentration (e.g. 100, 30, 10, 3, 1, 0.3 or 0.1 μM). Cells were incubated with compounds for 4 hours. Cell free supernatant was collected and the production of IL-1β was evaluated by ELISA. A vehicle only control was run concurrently with each experiment. Final DMSO concentration was 1%.
THP-1 cells were purchased from the American Type Culture Collection and sub-cultured according to instructions from the supplier. Prior to experiments, cells were cultured in RPMI 1640 containing 10% heat inactivated FBS, penicillin (100 units/ml), streptomycin (100 μg/ml), HEPES (10 mM) and sodium pyruvate (1 mM) and maintained in log phase prior to experimental setup. Prior to the experiment, THP-1 cells were treated with PMA (Phorbol 12-myristate 13-acetate) (20 μg/ml) overnight. The day of the experiment, the media was removed and attached cells were treated with trypsin for 2 minutes, cells were then collected, washed with PBS (phosphate buffer saline), pelleted by centrifugation and resuspended in 2% heat inactivated FBS with RPMI at a concentration of 50,000 cells/well in a 384 well plate. Cell free supernatant was collected and the production of IL-1β was evaluated by ELISA. Compounds were dissolved in dimethyl sulfoxide (DMSO) and added to the culture medium to achieve desired concentration (e.g. 100, 30, 10, 3, 1, 0.3 or 0.1 μM). Cells were incubated with compounds for 2 hours. A vehicle only control was run concurrently with each experiment. Final DMSO concentration was 1%.
Serial dilutions of compounds in DMSO were added to low volume 384 well plates at 100 nl/well using an ECHO 550 acoustic dispenser (Labcyte) to achieve final starting concentration of 10 μM in assay.
THP-1 cells in RPMI (Gibco, 11875) media with 10% FBS at a density of 1×10^6 cell/ml in a T175 flask were treated with a final concentration of phorbol 12-myristate 13-acetate (PMA) (Sigma,P1585) of 50 ng/ml overnight at 37° C. at 5% CO2 for differentiation. Cells were harvested the next day after rinsing well with dPBS using 0.5% trypsin. A cell solution was prepared of 1×10^6 cells/ml for 50,000 cells in 50 μl/well in RPMI media with 2% FBS. Cells were plated using a multichannel pipette onto the compound dilutions in Greiner, 384 well, black clear bottom tissue culture treated plates (781090). The plates were incubated in 37° C. incubator at 5% CO2 for 2 hours.
After the 2 hour incubation, the cell plates were spun in the centrifuge for 5 minutes at 1200 rpm. Using the Felix (CyBio), 8 μl of the supernatant was transferred to 384 well, low volume, white proxy plates. (Perkin Elmer, 6008230). A human IL1beta hTRF kit was used to analyze the supernatant (CISBIO, 62HIL1BPEG). The kit instructions were followed for preparing the IL1Beta standard curve and then the antibodies from the kit were diluted 1:40 rather than 1:20 as kit instructed. Once combined, the antibodies were added across the plates, 5 μl/well. The plates were sealed and incubated at 4° C. overnight. The plates were then read on the Perkin Elmer EnVision at 665/615 nm using the hTRF laser.

T1 sequence (Q96P20 whole entry): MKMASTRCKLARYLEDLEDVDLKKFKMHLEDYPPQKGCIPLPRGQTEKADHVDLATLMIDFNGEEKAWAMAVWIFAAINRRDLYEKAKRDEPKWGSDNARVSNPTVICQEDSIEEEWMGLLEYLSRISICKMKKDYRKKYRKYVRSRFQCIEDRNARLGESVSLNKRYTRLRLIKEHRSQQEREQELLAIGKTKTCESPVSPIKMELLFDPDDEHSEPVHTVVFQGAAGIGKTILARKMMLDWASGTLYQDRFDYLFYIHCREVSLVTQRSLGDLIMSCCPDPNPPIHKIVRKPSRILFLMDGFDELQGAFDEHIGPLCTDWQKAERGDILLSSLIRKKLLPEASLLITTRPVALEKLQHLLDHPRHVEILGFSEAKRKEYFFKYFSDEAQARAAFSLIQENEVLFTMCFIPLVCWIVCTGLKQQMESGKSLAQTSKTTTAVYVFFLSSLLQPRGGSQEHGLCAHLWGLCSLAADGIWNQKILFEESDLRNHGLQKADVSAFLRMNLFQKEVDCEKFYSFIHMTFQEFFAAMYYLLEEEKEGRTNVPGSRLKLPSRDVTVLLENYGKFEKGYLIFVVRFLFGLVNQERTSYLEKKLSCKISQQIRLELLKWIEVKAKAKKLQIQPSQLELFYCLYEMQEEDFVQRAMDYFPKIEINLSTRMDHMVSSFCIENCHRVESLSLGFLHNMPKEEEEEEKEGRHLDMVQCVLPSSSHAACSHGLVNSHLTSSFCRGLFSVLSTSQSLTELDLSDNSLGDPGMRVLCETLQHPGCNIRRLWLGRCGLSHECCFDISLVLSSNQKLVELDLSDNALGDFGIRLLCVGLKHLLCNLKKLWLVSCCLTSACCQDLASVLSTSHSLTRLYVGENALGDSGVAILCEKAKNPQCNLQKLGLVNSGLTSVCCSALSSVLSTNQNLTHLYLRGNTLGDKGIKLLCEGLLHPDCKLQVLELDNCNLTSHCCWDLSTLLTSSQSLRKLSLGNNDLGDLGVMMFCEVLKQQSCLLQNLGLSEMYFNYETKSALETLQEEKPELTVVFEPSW

As to `CC(C)(C)OC(=O)N1CCC[C@@H]1Cc1nc2c(N)nc3cc(-c4cc[nH]n4)ccc3c2[nH]1` [Example 13, tert-Butyl (R)-2-((4-amino-7-(1H-pyrazol-3-yl)-1H-imidazo[4,5-c]quinolin-2-yl)methyl)pyrolidine-1-carboxylate], the EC50 was determined as 1520 nM.
In the case of `CC(C)(C)C(=O)N1CCC[C@H]1Cc1nc2c(N)nc3cc(-c4cc[nH]n4)ccc3c2[nH]1` [Example 88] it was 1900 nM; in that of `Nc1nc2cc(-c3cc[nH]n3)ccc2c2[nH]c([C@H]3CCN(C(=O)c4ccccc4)C3)nc12` [Example 76], 5500 nM.
In the case of `C#CCC(=O)N1CCC[C@H](c2nc3c(N)nc4cc(-c5cc[nH]n5)ccc4c3n2CC)C1` [Example 49] it was 620 nM; in that of `CC(C)CC(=O)N1CCC[C@H](c2nc3c(N)nc4cc(-c5cc[nH]n5)ccc4c3n2C(C)C)C1` [Example 53], 230 nM.
In the case of `Nc1nc2cc(-c3cc[nH]n3)ccc2c2[nH]c([C@@H]3CCCN(C(=O)C4CC4(F)F)C3)nc12` (stereo partly drawn) [Example 63], it took 6600 nM to reach a half-maximal effect (EC50).
In the case of `Nc1nc2cc(-c3cc[nH]n3)ccc2c2[nH]c([C@H]3CCCN(C(=O)C4(C(F)(F)F)CC4)C3)nc12` [Example 36] it was 2800 nM; in that of `CC(C)n1c([C@H]2CCCN(C(=O)Cc3ccccc3)C2)nc2c(N)nc3cc(-c4cc[nH]n4)ccc3c21` [Example 57], 400 nM; in that of `CC(C)n1c([C@H]2CCCN(C(=O)C3CCC3)C2)nc2c(N)nc3cc(-c4cc[nH]n4)ccc3c21` [Example 54], 240 nM.
For the molecule `CC(C)n1c([C@H]2CCCN(C(=O)C3CC(F)(F)C3)C2)nc2c(N)nc3cc(-c4cc[nH]n4)ccc3c21` [Example 58], a half-maximal response (EC50) required 330 nM.
In the case of `COCC(=O)N1CCC[C@H](c2nc3c(N)nc4cc(-c5cc[nH]n5)ccc4c3[nH]2)C1` [Example 34] it was 2200 nM; in that of `COCCC(=O)N1CCC[C@H](c2nc3c(N)nc4cc(-c5cc[nH]n5)ccc4c3[nH]2)C1` [Example 35], 1800 nM.
In the case of `Nc1nc2cc(-c3cc[nH]n3)ccc2c2[nH]c([C@H]3CCCN(C(=O)C4CC(F)(F)C4)C3)nc12` [Example 32] it was 2500 nM.
In the case of `CCn1c([C@H]2CCCN(C(=O)C3CCC3)C2)nc2c(N)nc3cc(-c4cc[nH]n4)ccc3c21` [Example 44] it was 220 nM.
For `CC(C)C(=O)N1CC[C@@H](c2nc3c(N)nc4cc(-c5cc[nH]n5)ccc4c3[nH]2)C1` [Example 11, (R)-1-(3-(4-Amino-7-(1H-pyrazol-3-yl)-1H-imidazo[4,5-c]quinolin-2-yl)pyrrolidin-1-yl)-2-methylpropan-1-one], the EC50 worked out at 7000 nM.
In the case of `Nc1nc2cc(-c3cc[nH]n3)ccc2c2[nH]c([C@H]3CCCN(C(=O)C4CC4(F)F)C3)nc12` (stereo partly drawn) [Example 33] it was 1000 nM; in that of `Nc1nc2cc(-c3cc[nH]n3)ccc2c2[nH]c(C[C@H]3CCCN3C(=O)c3ccccc3)nc12` [Example 84], 2500 nM; in that of `Nc1nc2cc(-c3cc[nH]n3)ccc2c2[nH]c([C@@H]3CCCN(C(=O)C4(C(F)(F)F)CC4)C3)nc12` [Example 68], 2300 nM.
In the case of `N#CC1(C(=O)N2CC[C@H](c3nc4c(N)nc5cc(-c6cc[nH]n6)ccc5c4[nH]3)C2)CC1` [Example 75] it was 5000 nM.
In the case of `Nc1nc2cc(-c3cc[nH]n3)ccc2c2[nH]c([C@@H]3CCCNC3)nc12` [Example 7, (R)-2-(Piperidin-3-yl)-7-(1H-pyrazol-3-yl)-1H-imidazo[4,5-c]quinolin-4-amine] it was 1730 nM; in that of `CCC(=O)N1CCC[C@H](c2nc3c(N)nc4cc(-c5cc[nH]n5)ccc4c3[nH]2)C1` [Example 25], 1100 nM; in that of `CC(C)(C)OC(=O)N1CCC(c2nc3c(N)nc4cc(-c5cc[nH]n5)ccc4c3[nH]2)CC1` [Example 12, tert-Butyl 4-(4-amino-7-(1H-pyrazol-3-yl)-1H-imidazo[4,5-c]quinolin-2-yl)piperidine-1-carboxylate], 4900 nM.
As for `N#CC1(C(=O)N2CCC[C@@H]2Cc2nc3c(N)nc4cc(-c5cc[nH]n5)ccc4c3[nH]2)CCC1` [Example 82], the EC50 came out at 2600 nM. This EC50 lies about 1.9-fold lower than the previous one.
In the case of `Nc1nc2cc(-c3cc[nH]n3)ccc2c2[nH]c([C@@H]3CCN(C(=O)c4ccccc4)C3)nc12` [Example 77] it was 4100 nM; in that of `COCCC(=O)N1CCC[C@H](c2nc3c(N)nc4cc(-c5cc[nH]n5)ccc4c3n2C(C)C)C1` [Example 59], 970 nM.
In the case of `CC(C)C(=O)N1CCC[C@@H](c2nc3c(N)nc4cc(-c5cc[nH]n5)ccc4c3[nH]2)C1` [Example 60] it was 4600 nM; in that of `CCCC(=O)N1CCC[C@@H]1Cc1nc2c(N)nc3cc(-c4cc[nH]n4)ccc3c2[nH]1` [Example 78], 5800 nM.
In the case of `COCCC(=O)N1CCC[C@H]1Cc1nc2c(N)nc3cc(-c4cc[nH]n4)ccc3c2[nH]1` [Example 90] it was 6000 nM.
`COC(=O)N1CCC(Cc2nc3c(N)nc4cc(-c5cc[nH]n5)ccc4c3[nH]2)C1` (stereo not drawn) [Example 19, Methyl 3-((4-amino-7-(1H-pyrazol-3-yl)-1H-imidazo[4,5-c]quinolin-2-yl)methyl)pyrrolidine-1-carboxylate] displayed an EC50 of 1600 nM.
In the case of `CCCC(=O)N1CCC[C@H](c2nc3c(N)nc4cc(-c5cc[nH]n5)ccc4c3n2C(C)C)C1` [Example 52] it was 380 nM; in that of `Nc1nc2cc(-c3cc[nH]n3)ccc2c2[nH]c([C@H]3CCCN(C(=O)C4CCC4)C3)nc12` [Example 30], 680 nM.
In the case of `CC(C)n1c([C@H]2CCCN(C(=O)C3(C#N)CC3)C2)nc2c(N)nc3cc(-c4cc[nH]n4)ccc3c21` [Example 55] it was 230 nM; in that of `CCn1c([C@H]2CCCN(C(=O)C3CC3(F)F)C2)nc2c(N)nc3cc(-c4cc[nH]n4)ccc3c21` (stereo partly drawn) [Example 48], 80 nM.
In the case of `Nc1nc2cc(-c3cc[nH]n3)ccc2c2[nH]c(C[C@H]3CCCN3)nc12` [Example 14, (R)-7-(1H-pyrazol-3-yl)-2-(pyrrolidin-2-ylmethyl)-1H-imidazo[4,5-c]quinolin-4-amine] it was 110 nM; in that of `CC(=O)N1CCC[C@H](c2nc3c(N)nc4cc(-c5cc[nH]n5)ccc4c3n2C(C)C)C1` [Example 51], 930 nM.
Turning to `CC(C)C(=O)N1CCC[C@H](c2nc3c(N)nc4cc(-c5cc[nH]n5)ccc4c3[nH]2)C1` [Example 26], the midpoint of the response, the EC50, lay at 1200 nM.
In the case of `CC(C)C(=O)N1CC[C@H](c2nc3c(N)nc4cc(-c5cc[nH]n5)ccc4c3[nH]2)C1` [Example 72] it was 3100 nM; in that of `CCn1c([C@H]2CCCN(C(C)=O)C2)nc2c(N)nc3cc(-c4cc[nH]n4)ccc3c21` [Example 41], 770 nM.
In the case of `CCN1CCC(Cc2nc3c(N)nc4cc(-n5cccn5)ccc4c3[nH]2)C1` (stereo not drawn) [Example 22, 2-((1-Ethylpyrrolidin-3-yl)methyl)-7-(1H-pyrazol-1-yl)-1H-imidazo[4,5-c]quinolin-4-amine] it was 1400 nM.
In the case of `C#CCC(=O)N1CCC[C@@H](c2nc3c(N)nc4cc(-c5cc[nH]n5)ccc4c3[nH]2)C1` [Example 65] it was 350 nM; in that of “tert-Butyl 3-((4-amino-7-(1H-pyrazol-1-yl)-1H-imidazo[4,5-c]quinolin-2-yl)methyl)pyrrolidine-1-carboxylate [Example 23]”, 2200 nM.
As to `Nc1nc2cc(-c3cc[nH]n3)ccc2c2[nH]c(C[C@@H]3CCCN3C(=O)C3CC3(F)F)nc12` (stereo partly drawn) [Example 91], a half-maximal effect (EC50) was put at 4100 nM. This EC50 lies about 1.9-fold higher than the previous one.
